The source of these data is US12435090B2, “Compounds, pharmaceutical compositions, and methods of preparing compounds and of their use” (Repare Therapeutics Inc., priority 2021, dated 2025).

pIC50: −log10 of the molar value.

The assay has as its target recombinant human Myt1 (Homo sapiens (Human), UniProt Q99640). As to the kind of experiment: Myt1 enzymatic assay (ADP-Glo kinase assay). Particulars: 18 nM enzyme, 10 uM ATP. It is filed as biochemical. Here is the method:
Detection of Myt1 kinase activity utilized a recombinant human Myt1 kinase assay measuring the hydrolysis of ATP using a commercially available ADP-Glo Assay (ADP-Glo™ Kinase Assay from Promega, 10 000 assays, #V9102). […] After this, 5 μL of compounds (diluted in reaction buffer to 0.5% DMSO) was added to the microplate and the plate was spun briefly and incubated at 22° C. for 15 minutes. Ultra-Pure Adenosine Triphosphate (ATP) solution (ADP-Glo kit from Promega) was diluted in reaction buffer and 5 μL was added to the microplate, spun down briefly and incubated for 60 minutes at 30° C. […] After the 60-minute incubation, 15 µL of ADP-Glo reagent was added and the plate was spun briefly and sealed and incubated in the dark for 40 minutes at 22° C. […] Luminescence was read using the Envision (250 ms integration). The IC50 and the % max inhibition were calculated for each inhibitor compound tested.
(In general: ADP-Glo first removes unused ATP, then detects ADP through luciferase.)

recombinant human Myt1, sequence (Q99640 whole entry): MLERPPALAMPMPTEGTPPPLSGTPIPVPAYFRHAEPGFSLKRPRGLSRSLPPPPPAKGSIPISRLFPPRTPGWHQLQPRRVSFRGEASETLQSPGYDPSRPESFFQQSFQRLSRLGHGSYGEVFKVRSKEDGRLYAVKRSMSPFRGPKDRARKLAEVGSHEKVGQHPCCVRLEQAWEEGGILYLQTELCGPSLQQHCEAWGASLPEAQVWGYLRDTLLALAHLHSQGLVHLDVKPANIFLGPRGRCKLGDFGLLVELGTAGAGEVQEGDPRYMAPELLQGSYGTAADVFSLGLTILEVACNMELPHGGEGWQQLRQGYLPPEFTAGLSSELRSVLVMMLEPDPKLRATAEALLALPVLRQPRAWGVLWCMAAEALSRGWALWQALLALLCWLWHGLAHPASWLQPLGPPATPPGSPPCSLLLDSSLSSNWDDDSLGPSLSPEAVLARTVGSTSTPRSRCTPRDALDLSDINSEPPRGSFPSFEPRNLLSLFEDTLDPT

For orientation: pIC50 means the IC50 on a negative log10 scale, so that one unit is a factor of ten. With `Cc1ccc(O)c(C)c1-n1c(N)c(C(N)=O)c2nc(-c3nccs3)c(C)nc21` [Compound 31, 6-amino-5-(3-hydroxy-2,6-dimethyl-phenyl)-3-methyl-2-thiazol-2-yl-pyrrolo[2,3-b]pyrazine-7-carboxamide], the negative-log IC50 (pIC50) is > 8.00.
In the case of `Cc1ccc(O)c(C)c1-n1c(N)c(C(N)=O)c2nc(-c3nc(C)c(C)s3)cnc21` [Compound 32], the negative logarithm of the IC50 (pIC50) is > 8.00.
For the molecule `Cc1ccc(O)c(C)c1-n1c(N)c(C(N)=O)c2nc(-c3ccccn3)cnc21` [Compound 34], the pIC50 was > 8.00.
Regarding `Cc1ccc(O)c(C)c1-n1c(N)c(C(N)=O)c2nc(-c3ccnc(C(F)(F)F)c3)cnc21` [Compound 35, 6-amino-5-(3-hydroxy-2,6-dimethyl-phenyl)-2-[2-(trifluoromethyl)-4-pyridyl]pyrrolo[2,3-b]pyrazine-7-carboxamide], the pIC50 is > 8.00.
Consider `Cc1ccc(O)c(C)c1-n1c(N)c(C(N)=O)c2nc(-c3cncs3)cnc21` [Compound 37], for which the pIC50 is > 8.00.
With `Cc1ccc(O)c(C)c1-n1c(N)c(C(N)=O)c2nc(-c3cnccn3)cnc21` [Compound 38], the pIC50 was > 8.00.
For the molecule `Cc1ccc(O)c(C)c1-n1c(N)c(C(N)=O)c2nc(-c3ccns3)cnc21` [Compound 41], the pIC50 is > 8.00.
On to `Cc1c(O)ccc(Cl)c1-n1c(N)c(C(N)=O)c2nc(-c3nccs3)cnc21` [Compound 42], for which the pIC50 was > 8.00.
In the case of `CNC(=O)C1CCN(c2cnc3c(n2)c(C(N)=O)c(N)n3-c2c(C)ccc(O)c2C)CC1` [Compound 46, 6-amino-5-(3-hydroxy-2,6-dimethyl-phenyl)-2-[4-(methylcarbamoyl)-1-piperidyl]pyrrolo[2,3-b]pyrazine-7-carboxamide], the pIC50 is > 8.00.
In the case of `Cc1ccc(O)c(C)c1-n1c(N)c(C(N)=O)c2nc(-c3ccncn3)cnc21` [Compound 57] it was > 8.00; in that of `Cc1ccc(O)c(C)c1-n1c(N)c(C(N)=O)c2nc(C3=CCC(C(=O)N(C)C)CC3)cnc21` (stereo not drawn) [Compound 58], > 8.00; in that of `Cc1ccc(-c2cnc3c(n2)c(C(N)=O)c(N)n3-c2c(C)ccc(O)c2C)nc1` [Compound 61], > 8.00.
In the case of `Cc1ccc(O)c(C)c1-n1c(N)c(C(N)=O)c2nc(-c3ccc(F)cn3)cnc21` [Compound 64] it was > 8.00; in that of `Cc1ccc(O)c(C)c1-n1c(N)c(C(N)=O)c2nc(-c3c[nH]cn3)cnc21` [Compound 65], > 8.00.
Regarding `Cc1ccc(O)c(C)c1-n1c(N)c(C(N)=O)c2nc(-c3cn(C)cn3)cnc21` [Compound 76], the pIC50 was > 8.00.
On to `Cc1ccc(O)c(C)c1-n1c(N)c(C(N)=O)c2nc(N3CCC(C(=O)N(C)C)CC3)cnc21` [Compound 80], for which the pIC50 is > 8.00.
Turning to `Cc1ccc(O)c(C)c1-n1c(N)c(C(N)=O)c2nc(N3CCCCC3)cnc21` [Compound 81], the pIC50 is > 8.00.
For the molecule `Cc1ccc(O)c(C)c1-n1c(N)c(C(N)=O)c2nc(C3CCCCC3)cnc21` [Compound 83], the pIC50 was > 8.00.
Regarding `Cc1ccc(O)c(C)c1-n1c(N)c(C(N)=O)c2nc(N3CCCC3)cnc21` [Compound 85], the pIC50 is > 8.00.
With `Cc1ccc(O)c(C)c1-n1c(N)c(C(N)=O)c2nc(C3=CCCCC3)cnc21` [Compound 86], the pIC50 was > 8.00.
Under `CC(=O)N1CCN(c2cnc3c(n2)c(C(N)=O)c(N)n3-c2c(C)ccc(O)c2C)CC1` [Compound 87] stands > 8.00.
In the case of `CCN(CC)c1cnc2c(n1)c(C(N)=O)c(N)n2-c1c(C)ccc(O)c1C` [Compound 88], the negative logarithm of the IC50 (pIC50) is > 8.00.
For the molecule `Cc1ccc(O)c(C)c1-n1c(N)c(C(N)=O)c2nc(N3CC4CCC(C3)O4)cnc21` [Compound 92], the pIC50 was > 8.00.
`Cc1ccc(O)c(C)c1-n1c(N)c(C(N)=O)c2nc(C3CC3)c(C)nc21` [Compound 100]: the pIC50 was > 8.00.
In the case of `Cc1ccc(O)c(Cl)c1-n1c(N)c(C(N)=O)c2nc(C3CC3)cnc21` [Compound 104], the pIC50 is > 8.00.
As to `Cc1ccc(O)c(C)c1-n1c(N)c(C(N)=O)c2cc(C(C)(C)O)cnc21` [Compound 131], the pIC50 was > 8.00.
For the molecule `Cc1ccc(O)c(C)c1-n1c(N)c(C(N)=O)c2cc(C(C)C)cnc21` [Compound 138], the pIC50 is > 8.00.
On to `Cc1ccc(O)c(C)c1-n1c(N)c(C(N)=O)c2cc(Br)cnc21` [Compound 141], for which the pIC50 was > 8.00.
In the case of `Cc1ccc(O)c(C)c1-n1cc(C(N)=O)c2cc(C3CC3)cnc21` [Compound 143] it was > 8.00; in that of `Cc1nc2c(C(N)=O)c(N)n(-c3c(Cl)ccc(O)c3C)c2nc1C` [Compound 168], > 8.00.
Take `Cc1cnc(O)cc1-n1c(N)c(C(N)=O)c2nc(C)c(C)nc21` [Compound 169, 6-amino-5-(2-hydroxy-5-methyl-4-pyridyl)-2,3-dimethyl-pyrrolo[2,3-b]pyrazine-7-carboxamide]: the pIC50 is 5.76.
Under `Cc1ccc(O)c(C)c1-n1c(N)c(C(N)=O)c2nc(C3CCC3)cnc21` [Compound 173, 6-amino-2-cyclobutyl-5-(3-hydroxy-2,6-dimethyl-phenyl) pyrrolo[2,3-b]pyrazine-7-carboxamide] stands > 8.00; under `Cc1ccc(O)c(C)c1-n1c(N)c(C(N)=O)c2nc(C(C)(C)F)cnc21` [Compound 178, 6-amino-2-(1-fluoro-1-methyl-ethyl)-5-(3-hydroxy-2,6-dimethyl-phenyl) pyrrolo[2,3-b]pyrazine-7-carboxamide], > 8.00.
Turning to `Cc1ccc(O)c(C)c1-n1c(N)c(C(N)=O)c2cc(Br)c(C)nc21` [Compound 187], the pIC50 was > 8.00.
Take `Cc1ccc2c(C(N)=O)c(N)n(-c3c(C)ccc(O)c3C)c2n1` [Compound 193]: the pIC50 was > 8.00.
With `Cc1ccc(O)c(C)c1-n1c(N)c(C(N)=O)c2nc(C3(C(F)(F)F)CC3)cnc21` [Compound 198, 6-amino-5-(3-hydroxy-2,6-dimethyl-phenyl)-2-[1-(trifluoromethyl)cyclopropyl]pyrrolo[2,3-b]pyrazine-7-carboxamide], the pIC50 was > 8.00.
Under `C=C(C)c1cnc2c(n1)c(C(N)=O)c(N)n2-c1c(C)ccc(O)c1C` [Compound 202] stands > 8.00; under `Cc1ccc(O)c(C)c1-n1c(N)c(C(N)=O)c2nc(C(N)=O)cnc21` [Compound 220, 6-amino-5-(3-hydroxy-2,6-dimethyl-phenyl) pyrrolo[2,3-b]pyrazine-2,7-dicarboxamide], > 8.00.
As for `Cc1ccc(O)c(C)c1-n1c(N)c(C(N)=O)c2ncc(C#CCC3CCOCC3)nc21` [Compound 222], the pIC50 was > 8.00.
For `Cc1ccc(O)c(C)c1-n1c(N)c(C(N)=O)c2ncc(C#CC3(O)CCOCC3)nc21` [Compound 231], the pIC50 was > 8.00.
For `Cc1ccc(O)c(C)c1-n1c(N)c(C(N)=O)c2ncc(C#CC3(O)CCC(F)(F)CC3)nc21` [Compound 242, 6-amino-3-[2-(4,4-difluoro-1-hydroxy-cyclohexyl)ethynyl]-5-(3-hydroxy-2,6-dimethyl-phenyl) pyrrolo[2,3-b]pyrazine-7-carboxamide], the negative-log IC50 (pIC50) is > 8.00.
Take `Cc1ccc(O)c(C)c1-n1c(N)c(C(N)=O)c2nc(-c3nc4ccccc4s3)cnc21` [Compound 248]: the pIC50 was > 8.00.
As to `Cc1ccc(O)c(C)c1-n1c(N)c(C(N)=O)c2nc(-c3ccnnc3)cnc21` [Compound 250], the pIC50 is > 8.00.
As to `C=Cc1cnc2c(n1)c(C(N)=O)c(N)n2-c1c(C)ccc(O)c1C` [Compound 259], the pIC50 is > 8.00.
For `Cc1ncc(O)cc1-n1c(N)c(C(N)=O)c2nc(C)c(C)nc21` [Compound 262], the pIC50 is 5.49.
In the case of `NC(=O)c1c(N)n(-c2cccc3[nH]ncc23)c2nccnc12` [Compound 277, 6-amino-5-(1H-indazol-4-yl)pyrrolo[2,3-b]pyrazine-7-carboxamide], the pIC50 is 5.86.
With `Cc1ccc(O)c(C)c1-n1c(N)c(S(C)(=O)=O)c2nc(-c3cnccn3)cnc21` [Compound 278], the pIC50 is < 5.30.
Under `Cc1ccc(O)c(Br)c1-n1c(N)c(C(N)=O)c2cc(Cl)cnc21` [Compound 289] stands > 8.00; under `Cc1ccc(O)c(C)c1-n1c(N)c(C(N)=O)c2cc(-c3ccccn3)cnc21` [Compound 295], > 8.00.
In the case of `Cc1ccc(O)c(C)c1-n1c(N)c(C(N)=O)c2cc(N3CCCC3=O)cnc21` [Compound 298], the negative-log IC50 (pIC50) was > 8.00.
For the molecule `Cc1ccc(O)c(C)c1-n1c(N)c(C(N)=O)c2cc(C3=CCOCC3)cnc21` [Compound 304], the pIC50 is > 8.00.
`Cc1ccc(O)c(C)c1-n1c(N)c(C(N)=O)c2cc(-c3nccs3)cnc21` [Compound 308]: the pIC50 was > 8.00.
Regarding `Cc1ccc(O)c(C)c1-n1c(N)c(C(N)=O)c2cc(S(=O)(=O)C3CC3)cnc21` [Compound 311], the pIC50 was > 8.00.
As for `Cc1ccc(O)c(C)c1-n1c(N)c(C(N)=O)c2cc(C#N)cnc21` [Compound 312], the pIC50 is > 8.00.
In the case of `Cc1ccc(O)c(C)c1-n1c(N)c(C(N)=O)c2c(C)c(Cl)cnc21` [Compound 313] it was > 8.00; in that of `Cc1ccc(O)c(C)c1-n1c(N)c(C(N)=O)c2c(Cl)c(Cl)cnc21` [Compound 316], > 8.00.
In the case of `Cc1ccc(O)c(C)c1-n1c(N)c(C(N)=O)c2cc(I)cnc21` [Compound 319] it was > 8.00; in that of `Cc1ccc(O)c(Cl)c1-n1c(N)c(C(N)=O)c2cc(Cl)cnc21` [Compound 327], > 8.00; in that of `Cc1ccc(O)c(C)c1-n1c(N)c(C(N)=O)c2cccnc21` [Compound 328], > 8.00.
Regarding `Cc1ccc2[nH]ncc2c1-n1c(N)c(C(N)=O)c2nccnc21` [Compound 329], the pIC50 is 5.88.
